# Results reported in article PMC5401710, “Peptides with 6-Aminohexanoic Acid: Synthesis and Evaluation as Plasmin Inhibitors” (International Journal of Peptide Research and Therapeutics, 2016).
# Read-outs that look alike come from different tables or passages of the source. Non-standard residues stand in square brackets, D forms with d. Residues, ends and D or L forms follow the SMILES beside them. Ahx = NCCCCCC(=O)O
# What was measured:
# plasmin [1] = target: T1, plasmin (Homo sapiens, UniProt P00747); conditions: cited from earlier work; for inhibitory effect on plasmin activity: ref Midura-Nowaczek et al. [2003]
# T1 construct: The amino-terminal heavy chain of PL consists of five kringle domains; The C-terminal light chain of plasmin is a typical serine protease (SP); purchased Chromogenix (Milano, Italy)
# T1 sequence (P00747 97-580 limits assumed): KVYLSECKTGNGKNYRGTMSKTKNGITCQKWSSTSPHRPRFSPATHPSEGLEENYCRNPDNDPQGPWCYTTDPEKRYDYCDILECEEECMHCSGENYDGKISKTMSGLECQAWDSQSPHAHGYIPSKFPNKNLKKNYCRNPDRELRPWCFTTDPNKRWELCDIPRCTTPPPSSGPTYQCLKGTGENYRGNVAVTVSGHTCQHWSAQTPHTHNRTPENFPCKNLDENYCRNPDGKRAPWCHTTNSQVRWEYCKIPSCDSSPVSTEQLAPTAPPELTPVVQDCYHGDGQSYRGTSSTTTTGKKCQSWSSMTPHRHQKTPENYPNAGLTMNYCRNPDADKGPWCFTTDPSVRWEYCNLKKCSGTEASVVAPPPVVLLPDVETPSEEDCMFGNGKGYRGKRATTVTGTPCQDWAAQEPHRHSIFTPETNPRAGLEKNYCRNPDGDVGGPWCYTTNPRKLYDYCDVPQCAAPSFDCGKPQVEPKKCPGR
# T1 sequence (P00747 581-810 limits assumed): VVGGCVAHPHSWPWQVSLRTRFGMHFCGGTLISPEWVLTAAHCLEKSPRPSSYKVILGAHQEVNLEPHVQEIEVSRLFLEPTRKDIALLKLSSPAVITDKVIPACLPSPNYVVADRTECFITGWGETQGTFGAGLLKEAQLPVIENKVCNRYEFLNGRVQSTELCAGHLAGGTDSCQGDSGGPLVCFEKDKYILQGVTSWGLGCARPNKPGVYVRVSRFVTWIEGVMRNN
# uPA = target: T2, uPA (Homo sapiens, UniProt P00749); assay: Amidolytic activity of urokinase (substrate S-2444); format: biochemical; conditions: amidolytic activity, S-2444, tris buffer pH 8.8
# T2 construct: purchased Sigma (Schnelldorf, Germany)
# Description: (§1) Determination of amidolytic activity was performed as previously described by (Okada et al. [1988]). Buffer and 0.1 ml of enzyme solution was added to 0.2 ml of examined compound dissolved in 0.15 M NaCl (1–15) (as control 0.15 M NaCl). The buffer and the enzyme solution included: • tris buffer—0.6 ml (pH 8.8), enzyme: urokinase (50 units/ml), synthetic substrate: S-2444 (0.1 ml, 3 mM); • tris buffer—0.5 ml (pH 8.4), enzyme: thrombin (1 units/ml), synthetic substrate: S-2238 (0.2 ml, 0.75 mM); • tris buffer—0.5 ml (pH 7.4), enzyme: plasmin (0.4 units/ml), synthetic substrate: S-2251 (0.2 ml, 3 mM); • […]—0.5 ml (pH 7.5), enzyme: trypsin (0.4 units/ml), synthetic substrate: Bzl-L-Arg–pNA.HCl (0.2 ml, 8 mM); • tris buffer—0.6 ml (pH 9.0), enzyme: kallikrein (3 units/ml), synthetic substrate: S-2266 (0.1 ml, 75 mM); • tris buffer—0.6 ml (pH 8.4), enzyme: t-PA ([…]), synthetic substrate: S-2288 (0.1 ml, 10 mM).
# (§2) IC50 values were determined (IC50, Inhibitor Concentration, the concentration at which enzyme activity is inhibited by 50 %). Our results were compared with the 6-aminohexanoic acid.
# thrombin = target: T3, thrombin (Bos taurus, UniProt P00735); assay: Amidolytic activity of thrombin (substrate S-2238); format: biochemical; conditions: amidolytic activity, S-2238, tris buffer pH 8.4
# T3 construct: purchased Lubelska Wytwórnia Szczepionek (Lublin, Poland)
# Description: as §1, §2
# tPA = target: T4, tPA (Homo sapiens, UniProt P00750); assay: Amidolytic activity of t-PA (substrate S-2288); format: biochemical; conditions: amidolytic activity, S-2288, tris buffer pH 8.4
# T4 construct: purchased Boehringer Ingelheim GmbH (Ingelheim, Germany)
# T4 sequence (P00750 36-562): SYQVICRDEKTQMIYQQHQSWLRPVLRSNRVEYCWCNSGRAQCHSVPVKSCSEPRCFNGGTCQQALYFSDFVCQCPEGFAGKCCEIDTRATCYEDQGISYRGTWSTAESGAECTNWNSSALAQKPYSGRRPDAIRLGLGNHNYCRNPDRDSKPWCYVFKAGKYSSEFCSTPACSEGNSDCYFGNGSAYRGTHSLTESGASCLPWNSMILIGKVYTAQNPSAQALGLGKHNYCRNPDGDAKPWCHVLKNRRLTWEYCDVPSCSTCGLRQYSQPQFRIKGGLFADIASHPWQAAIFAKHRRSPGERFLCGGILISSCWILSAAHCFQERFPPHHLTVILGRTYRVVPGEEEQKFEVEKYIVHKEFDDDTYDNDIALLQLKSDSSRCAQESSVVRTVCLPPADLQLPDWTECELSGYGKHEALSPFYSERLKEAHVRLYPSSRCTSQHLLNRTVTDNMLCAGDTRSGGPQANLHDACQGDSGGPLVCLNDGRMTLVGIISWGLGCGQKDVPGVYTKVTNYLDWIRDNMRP
# Description: as §1, §2
# plasmin [2] = target: T1, plasmin; assay: Amidolytic activity of plasmin (substrate S-2251); format: biochemical; conditions: amidolytic activity, S-2251, tris buffer pH 7.4
# Description: as §1, §2
# [3] = tested on: fibrinolysis in whole blood; assay: Thromboelastometric (ROTEM) analysis of clot formation and fibrinolysis in whole blood; parameters: species or system human
# Description: Five healthy volunteers, men (age range: 25–34 years)) with normal blood cell counts were entered into the study. Healthy volunteers had not taken medication known to affect platelet function and/or coagulation for at least 10 days before blood sampling.
# Blood was stored at room temperature for 30 min after venipuncture and then was evaluated by thromboelastometric analyses.
# Thromboelastometric measurements were performed using ROTEM system (Tem International GmbH, Manheim, Germany). […] We measured the parameters characterized kinetic of clot formation (clotting time, alpha angle), clot strength (maximal clot firmness; MCF), and fibrinolysis (percentage reduction of MCF, clot lysis time).
# trypsin = assay: Amidolytic activity of trypsin (substrate Bzl-L-Arg-pNA); format: biochemical; conditions: amidolytic activity, Bzl-L-Arg-pNA, borane buffer pH 7.5
# Description: as §1, §2
# [4] = recalcified human whole blood, 140 ng/ml TF, 125 ng/ml tPA
Compound,IC50 (uPA) [mM],IC50 (thrombin) [mM],IC50 (tPA) [mM],IC50 (plasmin [2]) [mM],also measured
H–D-Ala–Phe–Lys–NH–(CH2)5–NH2,,,,,plasmin inhibitory activity (plasmin [1]; ref Midura-Nowaczek et al. [1990]): no activity
H–Ala–Phe–Lys–NH2,,,,,inhibitory effect on plasmin activity (plasmin [1]): completely lacked this effect
"C[C@@H](N)C(=O)N[C@@H](Cc1ccccc1)C(=O)N[C@@H](CCCCN)C(=O)NCCCCCC(N)=O [Compound 7, H–D-Ala–Phe–Lys–EACA–NH2] (H-[dA]FK[Ahx]-NH2)",> 20,> 20,> 20,0.02 ± 0.0016,"clotting time (CT, coagulation time) ([3]; human whole blood, control 174 s): 115 s; lysis of the clot in 45 min (from LI45) ([3]; human whole blood, whole blood alone about 61 %): 21%; LOT lysis onset time (clot amplitude reduced by 15 %) [3, 4]: 2519 ± 176 s; LT lysis time (clot reduced/lysed by 90 %) [3, 4]: 72 ± 4 min; LI30 lysis index, amplitude of clot after 30 min ([3]; recalcified human whole blood, TF + tPA, 30 min): 97%; LI45 lysis index, amplitude of clot after 45 min ([3]; recalcified human whole blood, TF + tPA, 45 min): 79%; LI60 lysis index, amplitude of clot after 60 min ([3]; recalcified human whole blood, TF + tPA, 60 min): 28%; IC50 (trypsin): > 20 mM"
H-[dA]-Phe-Lys-NH2,,,,,plasmin inhibitory activity (plasmin [1]; ref Markowska et al. ([2007])): no activity; inhibitory effect on plasmin activity (plasmin [1]): completely lacked this effect
"C[C@H](N)C(=O)N[C@@H](Cc1ccccc1)C(=O)N[C@@H](CCCCN)C(=O)NCCCCCC(=O)NCCCCCN [Compound 13, H–Ala–Phe–Lys–EACA–NH–(CH2)5–NH2]",> 20,> 20,> 20,1.4 ± 0.11,
CC(=O)N[C@@H](CCCCN)C(=O)NCCCCCN [Ac–Lys–NH–(CH2)5–NH2],,,,,IC50 (plasmin [1]; ref Midura-Nowaczek et al. [2008]): 8 mM

# Now from value to compound, other results behind:
IC50 (uPA) [mM],IC50 (thrombin) [mM],IC50 (tPA) [mM],IC50 (plasmin [2]) [mM],Compound,also measured
> 20,> 20,> 20,> 20,"C[C@H](N)C(=O)N[C@@H](Cc1ccccc1)C(=O)NCCCCCC(=O)NCCCCCN [Compound 15, H–Ala–Phe–EACA–NH–(CH2)5–NH2]",
3.38 ± 0.27,4.77 ± 0.38,> 20,> 20,"C[C@H](N)C(=O)N[C@@H](Cc1ccccc1)C(=O)NCCCCCC(=O)O [Compound 5, H–Ala–Phe–EACA–OH] (H-Ala-Phe-[Ahx]-OH)",
> 20,> 20,> 20,4.77 ± 0.38,"C[C@@H](N)C(=O)N[C@@H](Cc1ccccc1)C(=O)NCCCCCC(=O)NCCCCCN [Compound 14, H–D-Ala–Phe–EACA–NH–(CH2)5–NH2]",
> 20,> 20,> 20,1.55 ± 0.12,"C[C@@H](N)C(=O)N[C@@H](Cc1ccccc1)C(=O)NCCCCCC(N)=O [Compound 9, H–D-Ala–Phe–EACA–NH2] (H-[dA]-Phe-[Ahx]-NH2)",
3.17 ± 0.25,> 20,6.48 ± 0.52,10.9 ± 0.87,"C[C@@H](N)C(=O)N[C@@H](Cc1ccccc1)C(=O)NCCCCCC(=O)O [Compound 4, H–D-Ala–Phe–EACA–OH] (H-[dA]-Phe-[Ahx]-OH)",
